System: Wild-type (WT) U2OS cells
Assay: Reduction in nonspecific labeling of WT cells (number of tracks vs PA-JF549)
Format: cell-based
Details: 100 nM, 1 hr, ratio with PA-JF549 in the numerator
Experimental: Using the methods described in Tables 4a and 4b above, labelling specificity of the compound of Examples 1-28 was measured and compared to PA-JF549. U2OS cells wild type or expressing ER-HaloTag fusion were incubated with PA-JF549 or Examples 1-28 for 1 hr. […] Labeling specificity, as measured by the fold reduction in nonspecific labeling of WT cells, was calculated by number of tracks measured in WT cells for Examples 1-28 compared to the number of tracks in WT cells for PA-JF549, expressed as the ratio with PA-JF549 in the numerator.

[1] = Table 4b, Example 19 with 642 nm light

[N-]=[N+]=C1C(=O)c2ccc(C(=O)NCCOCCOCCCCCCCl)cc2C12c1ccc(N3CC(O)C3)cc1Oc1cc(N3CC(O)C3)ccc12 [Example 7, N-(2-(2-((6-chlorohexyl)oxy)ethoxy)ethyl)-2-diazo-3′,6′-bis(3-hydroxyazetidin-1-yl)-3-oxo-2,3-dihydrospiro[indene-1,9′-xanthene]-6-carboxamide]
Fold reduction in nonspecific labeling (Table 4a): >10
Fold reduction in nonspecific labeling [1]: >10

CN(C)C(=O)[C@H]1CCN(c2ccc3c(c2)Oc2cc(N4CC[C@H](C(=O)N(C)C)C4)ccc2C32C(=[N+]=[N-])C(=O)c3ccc(C(=O)NCCOCCOCCCCCCCl)cc32)C1 [Example 16, (3S,3′S)-1,1′-(6-((2-(2-((6-chlorohexyl)oxy)ethoxy)ethyl)carbamoyl)-2-diazo-3-oxo-2,3-dihydrospiro[indene-1,9′-xanthene]-3′,6′-diyl)bis(N,N-dimethylpyrrolidine-3-carboxamide)]
Fold reduction in nonspecific labeling (Table 4a): 5-10
Fold reduction in nonspecific labeling [1]: 5-10

[N-]=[N+]=C1C(=O)c2ccc(C(=O)NCCOCCOCCCCCCCl)cc2C12c1ccc(N3CC(C(=O)N4CCCC4)C3)cc1Oc1cc(N3CC(C(=O)N4CCCC4)C3)ccc12 [Example 10, N-(2-(2-((6-chlorohexyl)oxy)ethoxy)ethyl)-2-diazo-3-oxo-3′,6′-bis(3-(pyrrolidine-1-carbonyl)azetidin-1-yl)-2,3-dihydrospiro[indene-1,9′-xanthene]-6-carboxamide]
Fold reduction in nonspecific labeling (Table 4a): 5-10
Fold reduction in nonspecific labeling [1]: 5-10

CN1CC2CC(C1)N2c1ccc2c(c1)Oc1cc(N3C4CC3CN(C)C4)ccc1C21C(=[N+]=[N-])C(=O)c2ccc(C(=O)NCCOCCOCCCCCCCl)cc21 (stereo not drawn) [Example 18, N-(2-(2-((6-chlorohexyl)oxy)ethoxy)ethyl)-2-diazo-3′,6′-bis(3-methyl-3,6-diazabicyclo[3.1.1]heptan-6-yl)-3-oxo-2,3-dihydrospiro[indene-1,9′-xanthene]-6-carboxamide]
Fold reduction in nonspecific labeling (Table 4a): >10
Fold reduction in nonspecific labeling [1]: >10

CN(C)C1CN(c2ccc3c(c2)Oc2cc(N4CC(N(C)C)C4)ccc2C32C(=[N+]=[N-])C(=O)c3ccc(C(=O)NCCOCCOCCCCCCCl)cc32)C1 [Example 13, N-(2-(2-((6-chlorohexyl)oxy)ethoxy)ethyl)-2-diazo-3′,6′-bis(3-(dimethylamino)azetidin-1-yl)-3-oxo-2,3-dihydrospiro[indene-1,9′-xanthene]-6-carboxamide]
Fold reduction in nonspecific labeling (Table 4a): 5-10
Fold reduction in nonspecific labeling [1]: 5-10

[N-]=[N+]=C1C(=O)c2ccc(C(=O)NCCOCCOCCCCCCCl)cc2C12c1ccc(N3CC(C(=O)N4CCOCC4)C3)cc1Oc1cc(N3CC(C(=O)N4CCOCC4)C3)ccc12 [Example 9, N-(2-(2-((6-chlorohexyl)oxy)ethoxy)ethyl)-2-diazo-3′,6′-bis(3-(morpholine-4-carbonyl)azetidin-1-yl)-3-oxo-2,3-dihydrospiro[indene-1,9′-xanthene]-6-carboxamide]
Fold reduction in nonspecific labeling (Table 4a): >10
Fold reduction in nonspecific labeling [1]: >10

CN(C)C(=O)[C@@H]1CCN1c1ccc2c(c1)Oc1cc(N3CC[C@H]3C(=O)N(C)C)ccc1C21C(=[N+]=[N-])C(=O)c2ccc(C(=O)NCCOCCOCCCCCCCl)cc21 [Example 14, (2S,2′S)-1,1′-(6-((2-(2-((6-chlorohexyl)oxy)ethoxy)ethyl)carbamoyl)-2-diazo-3-oxo-2,3-dihydrospiro[indene-1,9′-xanthene]-3′,6′-diyl)bis(N,N-dimethylazetidine-2-carboxamide)]
Fold reduction in nonspecific labeling (Table 4a): >10
Fold reduction in nonspecific labeling [1]: >10

CN(CCOCCOCCCCCCCl)C(=O)c1ccc2c(c1)C1(C(=[N+]=[N-])C2=O)c2ccc(N3CCC3)cc2Oc2cc(N3CCC3)ccc21 [Example 8, 3′,6′-di(azetidin-1-yl)-N-(2-(2-((6-chlorohexyl)oxy)ethoxy)ethyl)-2-diazo-N-methyl-3-oxo-2,3-dihydrospiro[indene-1,9′-xanthene]-6-carboxamide]
Fold reduction in nonspecific labeling (Table 4a): 5-10
Fold reduction in nonspecific labeling [1]: 5-10

COC(=O)[C@H]1CCN1c1ccc2c(c1)Oc1cc(N3CC[C@@H]3C(=O)OC)ccc1C21C(=[N+]=[N-])C(=O)c2ccc(C(=O)NCCOCCOCCCCCCCl)cc21 [Example 6, Dimethyl 1,1′-(6-((2-(2-((6-chlorohexyl)oxy)ethoxy)ethyl)carbamoyl)-2-diazo-3-oxo-2,3-dihydrospiro[indene-1,9′-xanthene]-3′,6′-diyl)(2R,2′R)-bis(azetidine-2-carboxylate)]
Fold reduction in nonspecific labeling (Table 4a): 1-5
Fold reduction in nonspecific labeling [1]: 1-5

CNC(=O)C1CN(c2ccc3c(c2)Oc2cc(N4CC(C(=O)NC)C4)ccc2C32C(=[N+]=[N-])C(=O)c3ccc(C(=O)NCCOCCOCCCCCCCl)cc32)C1 [Example 12, 1,1′-(6-((2-(2-((6-chlorohexyl)oxy)ethoxy)ethyl)carbamoyl)-2-diazo-3-oxo-2,3-dihydrospiro[indene-1,9′-xanthene]-3′,6′-diyl)bis(N-methylazetidine-3-carboxamide)]
Fold reduction in nonspecific labeling (Table 4a): >10
Fold reduction in nonspecific labeling [1]: >10

CN1CCN(C(=O)C2CN(c3ccc4c(c3)Oc3cc(N5CC(C(=O)N6CCN(C)CC6)C5)ccc3C43C(=[N+]=[N-])C(=O)c4ccc(C(=O)NCCOCCOCCCCCCCl)cc43)C2)CC1 [Example 11, N-(2-(2-((6-chlorohexyl)oxy)ethoxy)ethyl)-2-diazo-3′,6′-bis(3-(4-methylpiperazine-1-carbonyl)azetidin-1-yl)-3-oxo-2,3-dihydrospiro[indene-1,9′-xanthene]-6-carboxamide]
Fold reduction in nonspecific labeling (Table 4a): 1-5
Fold reduction in nonspecific labeling [1]: 1-5

[N-]=[N+]=C1C(=O)c2ccc(NC(=O)CCOCCOCCCCCCCl)cc2C12c1ccc(N3CCC3)cc1Oc1cc(N3CCC3)ccc12 [Example 22, 3-(2-((6-chlorohexyl)oxy)ethoxy)-N-(3′,6′-di(azetidin-1-yl)-2-diazo-3-oxo-2,3-dihydrospiro[indene-1,9′-xanthen]-6-yl)propanamide]
Fold reduction in nonspecific labeling [1]: 5-10

[N-]=[N+]=C1C(=O)c2ccc(C(=O)NCCOCCOCCCCCCCl)cc2C12c1ccc(N3CC[C@@H]3CO)cc1Oc1cc(N3CC[C@@H]3CO)ccc12 [Example 15, N-(2-(2-((6-chlorohexyl)oxy)ethoxy)ethyl)-2-diazo-3′,6′-bis((R)-2-(hydroxymethyl)azetidin-1-yl)-3-oxo-2,3-dihydrospiro[indene-1,9′-xanthene]-6-carboxamide]
Fold reduction in nonspecific labeling (Table 4a): 5-10
Fold reduction in nonspecific labeling [1]: 5-10

[N-]=[N+]=C1C(=O)c2ccc(CCCCOCCOCCCCCCCl)cc2C12c1ccc(N3CCC3)cc1Oc1cc(N3CCC3)ccc12 [Example 24, 3′,6′-di(azetidin-1-yl)-6-(4-(2-((6-chlorohexyl)oxy)ethoxy)butyl)-2-diazospiro[indene-1,9′-xanthen]-3(2H)-one]
Fold reduction in nonspecific labeling [1]: 1-5

1,1′-(6-((2-(2-((6-chlorohexyl)oxy)ethoxy)ethyl)carbamoyl)-2-diazo-3-oxo-2,3-dihydrospiro[indene-1,9′-xanthene]-3′,6′-diyl)bis(azetidine-3-carboxamide [Example 20]
Fold reduction in nonspecific labeling [1]: >10

Reference: patent US20260234403A1, “PHOTOACTIVE FLUORESCENT COMPOUNDS AND USE THEREOF FOR LABELING OF PROTEINS” (EIKON THERAPEUTICS, INC., priority 2023, published 2026)
